Test results as given in ChEMBL document CHEMBL1129777, “Novel 6-substituted 2-aminotetralins with potent and selective affinity for the dopamine D3 receptor” (Bioorg Med Chem Lett, 1996).

Tests used:
D(3) dopamine receptor = D(3) dopamine receptor (Homo sapiens, UniProt P35462); test: Binding affinity against human Dopamine receptor D3 in Chinese hamster ovary cells using [3H]spiperone.; type: cell-based
D(2) dopamine receptor = D(2) dopamine receptor (Homo sapiens, UniProt P14416); test: Binding affinity against human Dopamine receptor D2 in mouse LtK- cells using [3H]spiperone.; type: cell-based
Sequence of D(2) dopamine receptor (P14416 whole entry): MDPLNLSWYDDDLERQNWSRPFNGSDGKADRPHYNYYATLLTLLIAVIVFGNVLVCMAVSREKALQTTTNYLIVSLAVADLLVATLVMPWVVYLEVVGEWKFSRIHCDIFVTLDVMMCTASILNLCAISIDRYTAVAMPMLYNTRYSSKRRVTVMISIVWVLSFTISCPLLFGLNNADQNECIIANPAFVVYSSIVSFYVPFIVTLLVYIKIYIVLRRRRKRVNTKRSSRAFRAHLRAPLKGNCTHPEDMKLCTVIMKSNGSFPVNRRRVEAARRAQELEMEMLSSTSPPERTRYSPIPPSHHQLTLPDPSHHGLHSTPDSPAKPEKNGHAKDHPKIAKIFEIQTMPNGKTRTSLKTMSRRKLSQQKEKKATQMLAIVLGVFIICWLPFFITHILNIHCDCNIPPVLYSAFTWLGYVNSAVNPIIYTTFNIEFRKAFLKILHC

Sequence of D(3) dopamine receptor (P35462 whole entry): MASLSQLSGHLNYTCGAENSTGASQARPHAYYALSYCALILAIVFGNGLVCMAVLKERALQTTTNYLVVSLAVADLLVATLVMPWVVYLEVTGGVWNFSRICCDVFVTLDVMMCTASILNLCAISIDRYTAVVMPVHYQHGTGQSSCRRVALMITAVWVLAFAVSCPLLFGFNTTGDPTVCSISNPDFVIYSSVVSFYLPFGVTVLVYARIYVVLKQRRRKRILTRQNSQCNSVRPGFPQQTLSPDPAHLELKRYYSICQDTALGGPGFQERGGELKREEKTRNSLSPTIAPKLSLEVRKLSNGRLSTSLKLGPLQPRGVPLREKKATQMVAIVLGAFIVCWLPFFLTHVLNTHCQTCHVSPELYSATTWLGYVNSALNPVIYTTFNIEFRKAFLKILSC

SMILES | Ki (D(3) dopamine receptor) [nM] | Ki (D(2) dopamine receptor) [nM]
CCCN(CCC)C1CCc2cc(CCc3ccccc3)ccc2C1 (stereo not given) | 3.98 | 398
CCCN(CCC)C1CCc2cc(CCc3ccc(/C(C)=N\O)cc3)ccc2C1 (stereo not given) | 2 | 794
CCCN(CCC)[C@H]1CCc2cc(CCc3ccc(Cl)cc3)ccc2C1 | 10 | 126
CCCN(CCC)[C@@H]1CCc2c(ccc(CCc3ccc(C(F)(F)F)cc3)c2OC)C1 | 6.31 | 100
CCCN(CCC)[C@@H]1CCc2cc(CCc3ccc(Cl)cc3)ccc2C1 | 3.98 | 398
CCCN(CCC)[C@@H]1CCc2c(OC)cccc2[C@@H]1C | 12.6 | 63.1
CCCN(CCC)C1CCc2cc(CCc3ccc(C(C)=O)cc3)ccc2C1 (stereo not given) | 3.98 | 1000
CCCN(CCC)[C@@H]1CCc2c(ccc(C(O)Cc3ccc(Cl)cc3)c2OC)C1 (single isomer, unassigned; isomer I) | 6.31 | 316
CCCN(CCC)[C@@H]1CCc2c(ccc(C(O)Cc3ccccc3)c2OC)C1 (stereo not given in full) | 63.1 | 1000
CCCN(CCC)[C@@H]1CCc2c(ccc(CCc3ccc(Cl)cc3)c2OC)C1 | 5.01 | 126
CCCN(CCC)[C@@H]1CCc2c(ccc(C(O)Cc3ccc(Cl)cc3)c2OC)C1 (stereo in doubt) | 50.1 | 1260
CCCN(CCC)C1CCc2cc(CCc3ccc(O)cc3)ccc2C1 (stereo not given) | 12.6 | 316
CCCN(CCC)C1CCc2cc(CCc3ccc(S(C)(=O)=O)cc3)ccc2C1 (stereo not given) | 1580 | 
CCCN(CCC)C1CCc2cc(CS(=O)(=O)c3ccc(OC)cc3)ccc2C1 (stereo not given) | 1.58 | 631

Results, then the compound that gave them:

Ki (D(3) dopamine receptor) [nM] | Ki (D(2) dopamine receptor) [nM] | SMILES
0.158 | 200 | CCCN(CCC)[C@@H]1CCc2cc(CS(=O)(=O)c3ccc(I)cc3)ccc2C1
50.1 |  | CCCN(CCC)[C@@H]1CCc2c(ccc(C(O)Cc3ccc(OC)cc3)c2OC)C1 (stereo not given in full)
25.1 | 6310 | CCCN(CCC)C1CCc2cc(CN(C(N)=O)c3ccc(OC)cc3)ccc2C1 (stereo not given)
20 |  | CCCN(CCC)[C@@H]1CCc2c(ccc(CCc3ccccc3)c2OC)C1
1 | 316 | CCCN(CCC)[C@@H]1CCc2cc(CCc3ccc(/C(C)=N\O)cc3)ccc2C1
6.31 | 794 | CCCN(CCC)C1CCc2cc(CN(C(=O)OC)c3ccc(OC)cc3)ccc2C1 (stereo not given)
1.26 | 501 | CCCN(CCC)[C@@H]1CCc2cc(CS(=O)(=O)c3ccc(OC)cc3)ccc2C1
20 |  | CCCN(CCC)[C@@H]1CCc2c(ccc(C(O)Cc3ccc(Cl)c(Cl)c3)c2OC)C1 (stereo not given in full)
7.94 | 631 | CCCN(CCC)C1CCc2cc(CN(C(C)=O)c3ccc(OC)cc3)ccc2C1 (stereo not given)
631 |  | CCCN(CCC)C1CCc2cc(CCc3ccc(C(N)=O)cc3)ccc2C1 (stereo not given)
501 |  | CCCN(CCC)[C@@H]1CCc2c(ccc(CCc3ccc(NS(C)(=O)=O)cc3)c2OC)C1
1.26 | 200 | CCCN(CCC)C1CCc2cc(CSc3ccc(OC)cc3)ccc2C1 (stereo not given)
2 | 251 | CCCN(CCC)C1CCc2cc(CCc3ccc(C(=O)OCC)cc3)ccc2C1 (stereo not given)
3.16 | 794 | CCCN(CCC)[C@@H]1CCc2cc(CCc3ccc(C(C)=O)cc3)ccc2C1
25.1 | 631 | CCCN(CCC)[C@@H]1CCc2c(ccc(C(O)Cc3ccc(Cl)cc3)c2OC)[C@@H]1C (stereo not given in full)
3160 |  | CCCN(CCC)C1CCc2cc(CCc3ccc(C(=O)O)cc3)ccc2C1 (stereo not given)
3.16 | 251 | CCCN(CCC)C1CCc2cc(CCc3ccc(OC)cc3)ccc2C1 (stereo not given)
